# Assay results: paper PMC5036048, “Rational improvement of gp41-targeting HIV-1 fusion inhibitors: an innovatively designed Ile-Asp-Leu tail with alternative conformations” (Scientific Reports, 2016)
# Ends that are not written are not given here.
# Columns and labels:
# [1] = test system: HIV-1 92TH009 (subtype A/E, R5); test: Inhibition of HIV-1 clinical strain infection of M7 cells, p24 antigen ELISA; assay type: cell-based
# Description: (§1) Inhibition activities of peptides on infection by HIV-1 clinical strains were determined as previously described. For inhibition of HIV-1 92TH009 (subtype A/E, R5) and 92UG024 (subtype D, X4) infection,100 TCID50 of the virus was added to 1 × 10^5/ml M7 cells in RPMI 1640 medium containing 10% FBS in the presence or absence of the test peptide overnight. Then, the culture supernatants were changed to fresh media. On the fourth day post-infection, culture supernatants were collected for detection of p24 antigen by ELISA. The percent inhibition of p24 production was calculated using the computer program Calcusyn.
# [2] = test system: HIV-1 92UG024 (subtype D, X4); assay type: cell-based
# Description: as §1
# B1206.W6P.ENV.A1 = assay type: cell-based, HIV-1; settings: subtype A; triplicate, repeated twice, mean ± SD; read-out: IC50 (nM) against B1206.W6P.ENV.A1
# From the text: (§2) Table 1 Inhibitory activities of CP, CP-IDL and T20 against HIV-1 pseudovirus. | column: IC50 (nM) of / CP; IC50 (nM) of / CP-IDL; IC50 (nM) of / T20
# BG505.W6M.ENV.C2 = assay type: cell-based, HIV-1; settings: subtype A; triplicate, repeated twice, mean ± SD; read-out: IC50 (nM) against BG505.W6M.ENV.C2
# From the text: as §2
# BJ412.W6M.ENV.S3 = assay type: cell-based, HIV-1; settings: subtype C; triplicate, repeated twice, mean ± SD; read-out: IC50 (nM) against BJ412.W6M.ENV.S3
# From the text: as §2
# CRF02_AG clone 242 = assay type: cell-based, HIV-1; settings: subtype AG, R5, Tier 1; triplicate, repeated twice, mean ± SD; read-out: IC50 (nM) against CRF02_AG clone 242
# From the text: as §2
# CRF02_AG clone 278 = assay type: cell-based, HIV-1; settings: subtype AG, R5, Tier 3; triplicate, repeated twice, mean ± SD; read-out: IC50 (nM) against CRF02_AG clone 278
# From the text: as §2
# CRF02_AG clone 33 = assay type: cell-based, HIV-1; settings: subtype AG, R5, Tier 3; triplicate, repeated twice, mean ± SD; read-out: IC50 (nM) against CRF02_AG clone 33
# From the text: as §2
# CRF02_AG/A1 clone 280 = assay type: cell-based, HIV-1; settings: subtype AG/A1, R5, Tier 2; triplicate, repeated twice, mean ± SD; read-out: IC50 (nM) against CRF02_AG/A1 clone 280
# From the text: as §2
# MJ412.W0M.ENV.B1 = assay type: cell-based, HIV-1; settings: subtype C; triplicate, repeated twice, mean ± SD; read-out: IC50 (nM) against MJ412.W0M.ENV.B1
# From the text: as §2
# SF162.LS = assay type: cell-based, HIV-1; settings: subtype B, R5, Tier 1; triplicate, repeated twice, mean ± SD; read-out: IC50 (nM) against SF162.LS
# From the text: as §2
# ZM109F.PB4 = assay type: cell-based, HIV-1; settings: subtype C, R5; triplicate, repeated twice, mean ± SD; read-out: IC50 (nM) against ZM109F.PB4
# From the text: as §2
# pCH119 env = assay type: cell-based, HIV-1; settings: subtype BC, R5, Tier 2; triplicate, repeated twice, mean ± SD; read-out: IC50 (nM) against pCH119 env
# From the text: as §2
# [3] = test system: T20-resistant strain N42T, N43K; assay type: cell-based, HIV-1; settings: triplicate, repeated twice, mean ± SD, read-out: IC50 (nM) against N42T, N43K
# From the text: (§3) Table 2 Inhibitory activities of CP, CP-IDL and T20 against T2635 or T20 resistant strains. | column: IC50 (nM) of / CP; IC50 (nM) of / CP-IDL; IC50 (nM) of / T20
# [4] = test system: T2635-resistant strain K154Q; assay type: cell-based, HIV-1; settings: triplicate, repeated twice, mean ± SD, read-out: IC50 (nM) against K154Q
# From the text: as §3
# [5] = test system: T2635-resistant strain N113E; assay type: cell-based, HIV-1; settings: triplicate, repeated twice, mean ± SD, read-out: IC50 (nM) against N113E
# From the text: as §3
# [6] = test system: T2635-resistant strain N126K; assay type: cell-based, HIV-1; settings: triplicate, repeated twice, mean ± SD, read-out: IC50 (nM) against N126K
# From the text: as §3
# [7] = test system: T2635-resistant strain Q66R, N126K; assay type: cell-based, HIV-1; settings: triplicate, repeated twice, mean ± SD, read-out: IC50 (nM) against Q66R, N126K
# From the text: as §3
# [8] = test system: WT (T20-resistant strain panel); assay type: cell-based, HIV-1; settings: triplicate, repeated twice, mean ± SD, read-out: IC50 (nM) against WT
# From the text: as §3
# [9] = test system: WT (T2635-resistant strain panel); assay type: cell-based, HIV-1; settings: triplicate, repeated twice, mean ± SD, read-out: IC50 (nM) against WT
# From the text: as §3
Sequence,IC50 (B1206.W6P.ENV.A1),IC50 (BG505.W6M.ENV.C2),IC50 (BJ412.W6M.ENV.S3),IC50 (CRF02_AG clone 242),IC50 (CRF02_AG clone 278),IC50 (CRF02_AG clone 33),IC50 (CRF02_AG/A1 clone 280),IC50 (MJ412.W0M.ENV.B1),IC50 (SF162.LS),IC50 (ZM109F.PB4),IC50 (pCH119 env),IC50 [3],IC50 [4],IC50 [5],IC50 [6],IC50 [7],IC50 [8],IC50 [9],further results
WEEWDKKIEEYTKKIEELIKKSQNQQ [CP],> 2000 nM,26.5 ± 8.6 nM,51.9 ± 12 nM,61.2 ± 13 nM,44.4 ± 13 nM,111 ± 4.8 nM,213 ± 14 nM,46 ± 3.2 nM,78.8 ± 11 nM,63.4 ± 4.6 nM,42.3 ± 2.9 nM,> 500 nM,> 500 nM,297 ± 22 nM,462 ± 44 nM,> 500 nM,181 ± 16 nM,195 ± 12 nM,"IC50 ([1]; M7 cells, 100 TCID50 virus, peptide overnight, p24 ELISA on day 4 post-infection): 0.281 µM; IC50 ([2]; M7 cells, 100 TCID50 virus, peptide overnight, p24 ELISA on day 4 post-infection, read-out: IC50, inhibition of HIV-1 92UG024 infection): 0.208 µM"
WEEWDKKIEEYTKKIEELIKKSQNQQIDL [CP-IDL],74.5 ± 12 nM,8.61 ± 2.8 nM,1.21 ± 0.1 nM,6.24 ± 3.7 nM,8.59 ± 2.4 nM,2.82 ± 0.5 nM,5.62 ± 1.2 nM,2.24 ± 1.3 nM,1.51 ± 0.4 nM,2.93 ± 1.2 nM,5.79 ± 1.1 nM,382 ± 82 nM,9.79 ± 2.9 nM,7.99 ± 3.5 nM,46.4 ± 16 nM,302 ± 34 nM,8.67 ± 1.6 nM,10.8 ± 1.2 nM,"Activity stronger than that of T20 ([1]; 92TH009): 24 fold; Increase of potency over CP ([1]; 92TH009, ratio of IC50 to CP): 109 fold; Increase of potency over CP ([2]; 92UG024, ratio of IC50 to CP): 55 fold; Activity stronger than that of T20 ([2]; 92UG024, ratio of IC50 to T20): 12 fold"
